Measured values reported in PMC4767141, “Discovery of Potent, Orally Bioavailable, Small-Molecule Inhibitors of WNT Signaling from a Cell-Based Pathway Screen” (Journal of Medicinal Chemistry, 2015).

Assays:
[1] = target: T1, M3 (h) (Homo sapiens, UniProt P20309); assay: CEREP binding panel; settings: antagonist radioligand, read-out: % Inhibition of Control Specific Binding
T1 construct: purchased Millipore KinaseProfiler (kinases); Cerep (receptors and ion channels)

[2] = target: T2, SRC (Homo sapiens, UniProt P12931); assay: Millipore kinase panel; type: biochemical; settings: read-out: % Control
T2 construct: purchased Millipore KinaseProfiler (kinases); Cerep (receptors and ion channels)
T2 sequence (P12931 whole entry): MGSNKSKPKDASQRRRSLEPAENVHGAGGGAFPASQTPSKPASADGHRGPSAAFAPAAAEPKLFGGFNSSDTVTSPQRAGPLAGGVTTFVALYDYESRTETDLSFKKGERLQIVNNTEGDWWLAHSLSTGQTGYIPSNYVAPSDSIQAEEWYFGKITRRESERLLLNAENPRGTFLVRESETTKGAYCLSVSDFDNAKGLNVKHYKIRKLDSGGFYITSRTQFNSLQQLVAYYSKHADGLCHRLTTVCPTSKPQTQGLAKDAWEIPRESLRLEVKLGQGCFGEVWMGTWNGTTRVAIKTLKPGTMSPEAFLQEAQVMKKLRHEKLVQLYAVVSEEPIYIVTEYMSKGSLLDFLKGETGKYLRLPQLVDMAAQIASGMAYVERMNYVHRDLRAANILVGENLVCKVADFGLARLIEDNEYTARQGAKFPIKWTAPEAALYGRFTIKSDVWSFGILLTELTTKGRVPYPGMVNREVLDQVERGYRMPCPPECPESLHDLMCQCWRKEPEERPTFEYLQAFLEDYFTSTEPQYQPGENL

[3] = target: T3, FGFR2 (Homo sapiens, UniProt P21802); assay: Millipore kinase panel; type: biochemical; settings: read-out: % Control
T3 construct: purchased Millipore KinaseProfiler (kinases); Cerep (receptors and ion channels)

[4] = test system: Ca2+ channel (L, verapamil site) (phenylalkylamine); assay: CEREP binding panel; settings: 10 μM, antagonist radioligand
[5] = target: T4, PRKX (Homo sapiens, UniProt P51817); assay: Millipore kinase panel; type: biochemical; settings: read-out: % Control
T4 construct: purchased Millipore KinaseProfiler (kinases); Cerep (receptors and ion channels)

[6] = target: T5, PIM-1 (Homo sapiens, UniProt P11309); assay: Millipore kinase panel; type: biochemical; settings: read-out: % Control
T5 construct: purchased Millipore KinaseProfiler (kinases); Cerep (receptors and ion channels)

[7] = target: T6, PKG1BETA (Homo sapiens, UniProt Q13976); assay: Millipore kinase panel; type: biochemical; settings: read-out: % Control
T6 construct: purchased Millipore

[8] = target: T7, MSSK1 (Homo sapiens, UniProt Q9UPE1); assay: Millipore kinase panel; type: biochemical; settings: read-out: % Control
T7 construct: purchased Millipore KinaseProfiler (kinases); Cerep (receptors and ion channels)

[9] = target: T8, NEK2 (Homo sapiens, UniProt P51955); assay: Millipore kinase panel; type: biochemical; settings: read-out: % Control
T8 construct: purchased Millipore KinaseProfiler (kinases); Cerep (receptors and ion channels)

[10] = target: T9, CCK1 (CCKA) (h) (Homo sapiens, UniProt P32238); assay: CEREP binding panel; settings: agonist radioligand, read-out: % Inhibition of Control Specific Binding
T9 construct: purchased Millipore KinaseProfiler (kinases); Cerep (receptors and ion channels)
T9 sequence (P32238 whole entry): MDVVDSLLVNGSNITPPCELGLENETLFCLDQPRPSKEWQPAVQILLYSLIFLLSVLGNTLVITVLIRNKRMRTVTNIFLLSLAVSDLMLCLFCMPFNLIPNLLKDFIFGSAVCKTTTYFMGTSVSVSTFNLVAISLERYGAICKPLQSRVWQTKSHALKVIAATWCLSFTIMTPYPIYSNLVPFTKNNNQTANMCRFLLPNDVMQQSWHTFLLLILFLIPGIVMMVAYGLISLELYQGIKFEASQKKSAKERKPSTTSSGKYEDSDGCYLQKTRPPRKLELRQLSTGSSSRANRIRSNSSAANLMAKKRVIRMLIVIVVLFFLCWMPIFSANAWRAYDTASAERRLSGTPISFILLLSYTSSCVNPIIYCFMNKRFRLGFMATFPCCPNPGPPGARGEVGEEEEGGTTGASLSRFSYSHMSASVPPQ

[11] = target: T10, RSK2 (Homo sapiens, UniProt P51812); assay: Millipore kinase panel; type: biochemical; settings: read-out: % Control
T10 construct: purchased Millipore KinaseProfiler (kinases); Cerep (receptors and ion channels)

[12] = target: T11, CDK3/CYCLINE (Homo sapiens, UniProt Q00526); assay: Millipore kinase panel; type: biochemical; settings: read-out: % Control
T11 construct: purchased Millipore KinaseProfiler (kinases); Cerep (receptors and ion channels)
T11 sequence (Q00526 whole entry): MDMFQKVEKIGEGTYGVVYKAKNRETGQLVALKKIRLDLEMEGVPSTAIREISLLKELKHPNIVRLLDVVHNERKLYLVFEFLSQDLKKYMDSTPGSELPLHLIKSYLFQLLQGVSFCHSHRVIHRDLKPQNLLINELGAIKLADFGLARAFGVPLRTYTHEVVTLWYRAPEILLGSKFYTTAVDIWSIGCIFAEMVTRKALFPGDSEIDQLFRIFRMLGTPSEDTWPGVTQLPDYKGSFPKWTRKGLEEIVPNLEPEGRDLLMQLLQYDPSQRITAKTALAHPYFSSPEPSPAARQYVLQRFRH
T11 sequence (P24864 whole entry partner): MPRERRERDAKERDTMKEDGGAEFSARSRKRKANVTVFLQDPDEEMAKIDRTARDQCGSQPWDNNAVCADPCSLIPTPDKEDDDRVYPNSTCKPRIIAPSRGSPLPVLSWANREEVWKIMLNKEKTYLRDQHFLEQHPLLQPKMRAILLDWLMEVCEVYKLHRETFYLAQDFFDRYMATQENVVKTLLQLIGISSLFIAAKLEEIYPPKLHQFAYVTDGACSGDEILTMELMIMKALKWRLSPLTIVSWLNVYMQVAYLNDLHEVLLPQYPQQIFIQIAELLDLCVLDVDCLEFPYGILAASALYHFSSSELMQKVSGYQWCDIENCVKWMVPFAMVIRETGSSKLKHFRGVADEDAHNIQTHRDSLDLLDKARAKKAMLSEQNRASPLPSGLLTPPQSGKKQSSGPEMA

[13] = target: T12, PASK (Homo sapiens, UniProt Q96RG2); assay: Millipore kinase panel; type: biochemical; settings: read-out: % Control
T12 construct: purchased Millipore KinaseProfiler (kinases); Cerep (receptors and ion channels)

[14] = target: T13, CRAF (Homo sapiens, UniProt P04049); assay: Millipore kinase panel; type: biochemical; settings: read-out: % Control
T13 construct: purchased Millipore KinaseProfiler (kinases); Cerep (receptors and ion channels)

[15] = target: T14, LKB1 (Homo sapiens, UniProt Q15831); assay: Millipore kinase panel; type: biochemical; settings: read-out: % Control
T14 construct: purchased Millipore KinaseProfiler (kinases); Cerep (receptors and ion channels)

[16] = target: T15, 5-HT5a (h) (Homo sapiens, UniProt P47898); assay: CEREP binding panel; settings: agonist radioligand, read-out: % Inhibition of Control Specific Binding
T15 construct: purchased Millipore KinaseProfiler (kinases); Cerep (receptors and ion channels)

[17] = target: T16, NEK6 (Homo sapiens, UniProt Q9HC98); assay: Millipore kinase panel; type: biochemical; settings: read-out: % Control
T16 construct: purchased Millipore KinaseProfiler (kinases); Cerep (receptors and ion channels)

[18] = target: T17, ASK1 (Homo sapiens, UniProt Q99683); assay: Millipore kinase panel; type: biochemical; settings: read-out: % Control
T17 construct: purchased Millipore KinaseProfiler (kinases); Cerep (receptors and ion channels)

[19] = target: T18, PYK2 (Homo sapiens, UniProt Q14289); assay: Millipore kinase panel; type: biochemical; settings: read-out: % Control
T18 construct: purchased Millipore KinaseProfiler (kinases); Cerep (receptors and ion channels)

[20] = target: T19, ERBB4 (Homo sapiens, UniProt Q15303); assay: Millipore kinase panel; type: biochemical; settings: read-out: % Control
T19 construct: purchased Millipore KinaseProfiler (kinases); Cerep (receptors and ion channels)

[21] = target: T20, TRKA (Homo sapiens, UniProt P04629); assay: Millipore kinase panel; type: biochemical; settings: read-out: % Control
T20 construct: purchased Millipore KinaseProfiler (kinases); Cerep (receptors and ion channels)

[22] = target: T21, M1 (h) (Homo sapiens, UniProt P11229); assay: CEREP binding panel; settings: antagonist radioligand, read-out: % Inhibition of Control Specific Binding
T21 construct: purchased Millipore KinaseProfiler (kinases); Cerep (receptors and ion channels)
T21 sequence (P11229 whole entry): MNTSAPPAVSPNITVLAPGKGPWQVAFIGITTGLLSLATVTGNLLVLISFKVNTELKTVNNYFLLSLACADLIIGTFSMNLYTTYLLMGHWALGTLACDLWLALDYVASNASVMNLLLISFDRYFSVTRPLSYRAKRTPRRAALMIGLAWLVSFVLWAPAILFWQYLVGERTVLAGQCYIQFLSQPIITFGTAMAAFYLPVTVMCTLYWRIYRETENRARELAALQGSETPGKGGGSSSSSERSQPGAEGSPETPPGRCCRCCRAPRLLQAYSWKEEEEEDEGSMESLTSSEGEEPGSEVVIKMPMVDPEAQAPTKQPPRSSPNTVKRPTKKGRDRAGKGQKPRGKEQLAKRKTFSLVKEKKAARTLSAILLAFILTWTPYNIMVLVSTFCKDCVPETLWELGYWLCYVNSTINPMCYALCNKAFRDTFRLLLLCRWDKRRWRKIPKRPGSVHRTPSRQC

[23] = target: T22, δ2 (DOP) (h) (Homo sapiens, UniProt P41143); assay: CEREP binding panel; settings: agonist radioligand, read-out: % Inhibition of Control Specific Binding
T22 construct: purchased Millipore KinaseProfiler (kinases); Cerep (receptors and ion channels)

[24] = target: T23, NEK7 (Homo sapiens, UniProt Q8TDX7); assay: Millipore kinase panel; type: biochemical; settings: read-out: % Control
T23 construct: purchased Millipore KinaseProfiler (kinases); Cerep (receptors and ion channels)

[25] = target: T24, MAPKAP-K2 (Homo sapiens, UniProt P49137); assay: Millipore kinase panel; type: biochemical; settings: read-out: % Control
T24 construct: purchased Millipore KinaseProfiler (kinases); Cerep (receptors and ion channels)

[26] = target: T25, PLK3 (Homo sapiens, UniProt Q9H4B4); assay: Millipore kinase panel; type: biochemical; settings: read-out: % Control
T25 construct: purchased Millipore KinaseProfiler (kinases); Cerep (receptors and ion channels)

[27] = target: T26, RSK1 (Homo sapiens, UniProt Q15418); assay: Millipore kinase panel; type: biochemical; settings: read-out: % Control
T26 construct: purchased Millipore KinaseProfiler (kinases); Cerep (receptors and ion channels)

[28] = target: T27, MT1 (ML1A) (h) (Homo sapiens, UniProt P48039); assay: CEREP binding panel; settings: agonist radioligand, read-out: % Inhibition of Control Specific Binding
T27 construct: purchased Millipore KinaseProfiler (kinases); Cerep (receptors and ion channels)
T27 sequence (P48039 whole entry): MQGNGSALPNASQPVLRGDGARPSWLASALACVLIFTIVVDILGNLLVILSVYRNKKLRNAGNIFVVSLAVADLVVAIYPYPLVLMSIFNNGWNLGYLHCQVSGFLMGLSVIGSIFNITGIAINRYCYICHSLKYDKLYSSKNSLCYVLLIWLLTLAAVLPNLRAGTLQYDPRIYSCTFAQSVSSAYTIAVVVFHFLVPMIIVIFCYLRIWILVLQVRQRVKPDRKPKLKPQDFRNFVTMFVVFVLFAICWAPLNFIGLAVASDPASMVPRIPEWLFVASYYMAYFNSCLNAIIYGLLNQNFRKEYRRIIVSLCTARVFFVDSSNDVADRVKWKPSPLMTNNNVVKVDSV

[29] = target: T28, CLK3 (Homo sapiens, UniProt P49761); assay: Millipore kinase panel; type: biochemical; settings: read-out: % Control
T28 construct: purchased Millipore KinaseProfiler (kinases); Cerep (receptors and ion channels)

[30] = target: T29, D1 (h) (Homo sapiens, UniProt P21728); assay: CEREP binding panel; settings: antagonist radioligand, read-out: % Inhibition of Control Specific Binding
T29 construct: purchased Millipore KinaseProfiler (kinases); Cerep (receptors and ion channels)

[31] = target: T30, PDGFRBETA (Homo sapiens, UniProt P09619); assay: Millipore kinase panel; type: biochemical; settings: read-out: % Control
T30 construct: purchased Millipore KinaseProfiler (kinases); Cerep (receptors and ion channels)

[32] = target: T31, CLK2 (Homo sapiens, UniProt P49760); assay: Millipore kinase panel; type: biochemical; settings: read-out: % Control
T31 construct: purchased Millipore KinaseProfiler (kinases); Cerep (receptors and ion channels)

[33] = target: T32, CK1GAMMA1 (Homo sapiens, UniProt Q9HCP0); assay: Millipore kinase panel; type: biochemical; settings: read-out: % Control
T32 construct: purchased Millipore KinaseProfiler (kinases); Cerep (receptors and ion channels)

[34] = target: T33, PRKAA1 (Homo sapiens, UniProt Q13131); assay: Millipore kinase panel; type: biochemical; settings: read-out: % Control
T33 construct: purchased Millipore KinaseProfiler (kinases); Cerep (receptors and ion channels)

[35] = target: T34, ABL (Homo sapiens, UniProt P00519); assay: Millipore kinase panel; type: biochemical; settings: read-out: % Control
T34 construct: purchased Millipore KinaseProfiler (kinases); Cerep (receptors and ion channels)

[36] = target: T35, norepinephrine transporter (h) (Homo sapiens, UniProt P23975); assay: CEREP binding panel; settings: antagonist radioligand, read-out: % Inhibition of Control Specific Binding
T35 construct: purchased Millipore KinaseProfiler (kinases); Cerep (receptors and ion channels)

[37] = target: T36, CAMKIV (Homo sapiens, UniProt Q16566); assay: Millipore kinase panel; type: biochemical; settings: read-out: % Control
T36 construct: purchased Millipore KinaseProfiler (kinases); Cerep (receptors and ion channels)

[38] = target: T37, A3 (h) (Homo sapiens, UniProt P0DMS8); assay: CEREP binding panel; settings: agonist radioligand, read-out: % Inhibition of Control Specific Binding
T37 construct: purchased Millipore KinaseProfiler (kinases); Cerep (receptors and ion channels)
T37 sequence (P0DMS8 whole entry): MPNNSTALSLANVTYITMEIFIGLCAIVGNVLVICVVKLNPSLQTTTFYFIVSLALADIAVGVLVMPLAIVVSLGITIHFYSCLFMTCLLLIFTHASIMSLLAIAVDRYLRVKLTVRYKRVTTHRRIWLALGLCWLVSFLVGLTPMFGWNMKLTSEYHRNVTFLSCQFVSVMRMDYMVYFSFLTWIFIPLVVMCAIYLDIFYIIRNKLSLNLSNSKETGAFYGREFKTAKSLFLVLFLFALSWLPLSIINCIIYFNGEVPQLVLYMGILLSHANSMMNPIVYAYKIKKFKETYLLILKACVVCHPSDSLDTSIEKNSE

[39] = target: T38, IGF-1R, ACTIVATED (Homo sapiens, UniProt P08069); assay: Millipore kinase panel; type: biochemical; settings: read-out: % Control
T38 construct: purchased Millipore KinaseProfiler (kinases); Cerep (receptors and ion channels)

[40] = target: T39, VPAC1 (VIP1) (h) (Homo sapiens, UniProt P32241); assay: CEREP binding panel; settings: agonist radioligand, read-out: % Inhibition of Control Specific Binding
T39 construct: purchased Millipore KinaseProfiler (kinases); Cerep (receptors and ion channels)
T39 sequence (P32241 31-457): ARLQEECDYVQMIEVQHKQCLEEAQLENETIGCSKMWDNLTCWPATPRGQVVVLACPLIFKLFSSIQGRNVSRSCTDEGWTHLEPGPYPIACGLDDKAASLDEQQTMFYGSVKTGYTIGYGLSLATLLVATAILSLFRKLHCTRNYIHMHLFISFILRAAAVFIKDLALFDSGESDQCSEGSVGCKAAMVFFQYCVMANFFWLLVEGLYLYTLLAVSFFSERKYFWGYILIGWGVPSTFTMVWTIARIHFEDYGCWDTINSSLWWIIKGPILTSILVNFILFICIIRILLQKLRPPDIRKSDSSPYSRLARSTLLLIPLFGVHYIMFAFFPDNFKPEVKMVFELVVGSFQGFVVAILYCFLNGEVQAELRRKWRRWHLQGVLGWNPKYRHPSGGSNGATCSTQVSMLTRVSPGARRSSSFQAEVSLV

[41] = target: T40, TAO1 (Homo sapiens, UniProt Q7L7X3); assay: Millipore kinase panel; type: biochemical; settings: read-out: % Control
T40 construct: purchased Millipore KinaseProfiler (kinases); Cerep (receptors and ion channels)
T40 sequence (Q7L7X3 whole entry): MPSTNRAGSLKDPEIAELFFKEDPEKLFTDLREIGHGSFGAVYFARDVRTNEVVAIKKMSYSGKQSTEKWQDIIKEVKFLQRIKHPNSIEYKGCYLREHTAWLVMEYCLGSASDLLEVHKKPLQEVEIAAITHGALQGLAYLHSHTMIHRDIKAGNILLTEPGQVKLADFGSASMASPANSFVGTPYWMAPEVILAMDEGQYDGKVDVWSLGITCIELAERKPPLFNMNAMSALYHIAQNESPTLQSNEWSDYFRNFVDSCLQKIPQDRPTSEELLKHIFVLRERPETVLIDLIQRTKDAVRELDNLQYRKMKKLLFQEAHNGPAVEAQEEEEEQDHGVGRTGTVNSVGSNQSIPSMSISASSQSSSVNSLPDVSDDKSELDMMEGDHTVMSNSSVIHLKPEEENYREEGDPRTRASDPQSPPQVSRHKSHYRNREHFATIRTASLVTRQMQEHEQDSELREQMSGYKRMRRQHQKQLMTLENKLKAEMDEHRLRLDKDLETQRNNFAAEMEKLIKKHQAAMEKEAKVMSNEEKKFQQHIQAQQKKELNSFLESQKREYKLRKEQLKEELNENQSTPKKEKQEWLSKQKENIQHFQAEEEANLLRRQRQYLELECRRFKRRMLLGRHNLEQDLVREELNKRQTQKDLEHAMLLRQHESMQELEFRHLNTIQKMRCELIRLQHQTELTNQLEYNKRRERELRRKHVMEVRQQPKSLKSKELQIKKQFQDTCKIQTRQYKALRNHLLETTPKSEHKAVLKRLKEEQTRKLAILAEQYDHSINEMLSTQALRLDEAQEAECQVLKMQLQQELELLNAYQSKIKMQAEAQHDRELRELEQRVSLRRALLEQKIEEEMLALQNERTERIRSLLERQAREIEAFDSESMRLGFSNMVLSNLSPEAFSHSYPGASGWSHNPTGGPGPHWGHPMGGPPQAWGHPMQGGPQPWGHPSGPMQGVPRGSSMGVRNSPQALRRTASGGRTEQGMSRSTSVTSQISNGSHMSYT

[42] = target: T41, CHK2 (Homo sapiens, UniProt O96017); assay: Millipore kinase panel; type: biochemical; settings: read-out: % Control
T41 construct: purchased Millipore KinaseProfiler (kinases); Cerep (receptors and ion channels)
T41 sequence (O96017 whole entry): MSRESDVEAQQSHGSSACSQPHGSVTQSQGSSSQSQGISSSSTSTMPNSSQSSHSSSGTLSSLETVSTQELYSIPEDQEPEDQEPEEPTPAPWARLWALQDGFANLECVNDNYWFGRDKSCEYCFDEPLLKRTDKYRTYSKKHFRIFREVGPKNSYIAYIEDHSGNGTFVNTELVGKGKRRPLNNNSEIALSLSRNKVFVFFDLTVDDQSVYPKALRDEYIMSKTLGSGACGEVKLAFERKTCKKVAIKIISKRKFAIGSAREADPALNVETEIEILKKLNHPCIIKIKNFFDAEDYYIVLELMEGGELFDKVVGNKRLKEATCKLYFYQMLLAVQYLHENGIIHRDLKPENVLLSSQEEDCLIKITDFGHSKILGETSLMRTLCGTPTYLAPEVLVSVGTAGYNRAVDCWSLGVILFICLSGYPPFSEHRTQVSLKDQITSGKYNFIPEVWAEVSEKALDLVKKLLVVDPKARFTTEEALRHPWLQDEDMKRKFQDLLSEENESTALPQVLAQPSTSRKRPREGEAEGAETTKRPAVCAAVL

[43] = target: T42, MEK1 (Homo sapiens, UniProt Q02750); assay: Millipore kinase panel; type: biochemical; settings: read-out: % Control
T42 construct: purchased Millipore KinaseProfiler (kinases); Cerep (receptors and ion channels)

Work on O=C1NCCC12CCN(c1c(Cl)cncc1-c1ccc(N3CCOCC3)cc1)CC2 [Compound 44, 8-(3-Chloro-5-(4-morpholin-4-ylphenyl)pyridin-4-yl)-2,8-diazaspiro[4.5]decan-1-one] yielded an inhibition at 10 µM [1] of 47%, a remaining activity at 1 µM [2] of 4% and a remaining activity at 1 µM [3] of -6%. For the same compound, the “% Inhibition of Control Specific Binding” value [4] was 9%, the remaining activity at 1 µM [5] was 1% and the remaining activity at 1 µM [6] was 1%. The remaining activity at 1 µM [7] was -4%, the remaining activity at 1 µM [8] was -10% and the remaining activity at 1 µM [9] was 3%. For the same compound, the inhibition at 10 µM [10] was -16%, the remaining activity at 1 µM [11] was 3% and the remaining activity at 1 µM [12] was -7%. The remaining activity at 1 µM [13] was 1%, the remaining activity at 1 µM [14] was -1% and the remaining activity at 1 µM [15] was 7%. For the same compound, the inhibition at 10 µM [16] was 11%, the remaining activity at 1 µM [17] was -4% and the remaining activity at 1 µM [18] was -1%. For the same compound, the remaining activity at 1 µM [19] was -6%, the remaining activity at 1 µM [20] was -9% and the remaining activity at 1 µM [21] was 17%. The inhibition at 10 µM [22] was 12%, the inhibition at 10 µM [23] was 12% and the remaining activity at 1 µM [24] was -7%. For the same compound, the remaining activity at 1 µM [25] was 0%, the remaining activity at 1 µM [26] was -17% and the remaining activity at 1 µM [27] was 2%. It also gave an inhibition at 10 µM [28] of 17%, a remaining activity at 1 µM [29] of 0% and an inhibition at 10 µM [30] of 2%. For the same compound, the remaining activity at 1 µM [31] was 13%, the remaining activity at 1 µM [32] was -10% and the remaining activity at 1 µM [33] was 2%. The remaining activity at 1 µM [34] was 15%, the remaining activity at 1 µM [35] was 4% and the inhibition at 10 µM [36] was -15%. It also gave a remaining activity at 1 µM [37] of -8%, an inhibition at 10 µM [38] of -7% and a remaining activity at 1 µM [39] of 3%. It also gave an inhibition at 10 µM [40] of 0%, a remaining activity at 1 µM [41] of -2% and a remaining activity at 1 µM [42] of 15%. The remaining activity at 1 µM [43] was -3%.
